# Measured values published in patent US11786543B2, “Compositions comprising decitabine and tetrahydrouridine and uses thereof” (The Board of Trustees of the University of Illinois, priority 2008, dated 2023).
# “And” between values parts separate entries of the source, which are not always exact repeats. Identical values can stand only once.
# Columns and labels:
# baboons = test: Pharmacodynamic responses (HbF %, neutrophil counts) to decitabine with or without THU in baboons; format: in vivo, baboon; design: ANC nadir: unit not given here
# Experimental: Fetal hemoglobin expression, HbF %, pre and post treatment with the indicated dose of decitabine. […] Oral treatment was with decitabine or a slightly modified decitabine (decitabine-mesylate—Dac-m).
# Decitabine was administered at the doses indicated in two consecutive blocks of 5 days each. THU at the indicated doses was administered 60 minutes before each decitabine dose.
# [1] = tested on: normal CD34+ hematopoietic cells; test: DNA damage (Fast Micromethod for DNA scission, γH2AX flow cytometry); details: decitabine 0.5 μM D1,3,5; Ara-C 0.5 μM D1,3,5; hydroxyurea 500 μM D1-5; measured D6
# Experimental: Measurement was performed on D6.
# Dark histogram=isotype control for flow-cytometricanalysis. Light histograms show the γH2AX staining for untreated control cells. Measurement was performed on D6.
# Normal CD34 cells were isolated from cord blood. DAC 0.005 μM was added once daily on days 1-4 and DNMT1 was quantified by Western blot on day 5. […] Twenty-four hours after DAC or AraC exposure, DNA damage was measured by flow-cytometric assessment for phosphorylation of histone H2AX (γH2AX; B) or the Fast Micromethod for DNA scission (FIG. 19C). Equimolar levels of AraC were used as positive controls. Gray histogram is the isotype control. […] Twenty-four hours after DAC or AraC exposure, apoptosis was measured by flow-cytometric assessment for annexin staining. Double annexin/7-aminoactinomycin D (7AAD)-positive cells represent late apoptosis/necrosis. […] Results are expressed as a percentage of vehicle treated controls.
# (§1) AraC, a cytidine analog that terminates DNA chain synthesis, was used as a positive control for DNA damage and apoptosis induction.
# normal CD34+ cells = test: Cell counts, morphology and colony formation; format: cell-based; details: non-DNA-damaging DNMTI-depleting decitabine; Ara-C equimolar
# From the text: The Kasumi-1 cell-line is derived from a patient with AMLI-ETO leukemia and represents a late-stage model of transformation and malignant evolution.
# [2] = tested on: normal hematopoietic precursors; format: cell-based; details: DAC 0.5 μM, equimolar Ara-C, clinically relevant levels of HU; measured D6
# Experimental: Measurement was performed on D6.
# Normal CD34 cells were isolated from cord blood. […] Equimolar levels of AraC were used as positive controls. […] Twenty-four hours after DAC or AraC exposure, apoptosis was measured by flow-cytometric assessment for annexin staining. Double annexin/7-aminoactinomycin D (7AAD)-positive cells represent late apoptosis/necrosis. […] Results are expressed as a percentage of vehicle treated controls.
# as §1
# [3] = Decitabine plasma pharmacokinetics in baboons (LC/MS)
# Experimental: Baboons were treated with IV decitabine 0.5 mg/kg (2 animals), SQ decitabine 0.5 mg/kg (2 animals), or oral decitabine 10 mg/kg (2 animals).
# Decitabine was administered to two baboons IV (0.5 mg/kg), SQ (0.5 mg/kg) and orally (10 mg/kg). Blood was collected at 7 time-points and plasma concentrations were determined using an LC/MS/MS method adapted from a previously published method 26.
# AUClast refers to the area under a plotted plasma concentration-time curve (not shown) at the last recorded timepoint.
# Two baboons (PA7484 and PA7470) were administered oral THU 20 mg/kg (400 mg/m^2) 60 minutes prior to oral decitabine 5 mg/kg, or decitabine alone. After a wash-out period of greater than 2 weeks, these same two animals were administered oral THU 2 mg/kg […] 60 minutes prior to oral decitabine 5 mg/kg, or oral decitabine alone. […] Decitabine levels were measured at various timepoints by LC-MS. […]
# To compare the effect of different routes of administration on the DAC concentration-time profile, plasma DAC levels were compared after IV or SC administration versus oral administration to the same animals (washout period of ≥2 weeks between drug administrations to the same animal). […] Blood was collected for up to 7 time-points after administration and plasma concentrations were determined using LC/MSMS. […]
# [4] = tested on: Reno-1 renal cell cancer xenograft; details: mouse, in vivo
# Experimental: In an effort to apply the proposed formulation and regimen to treat different cancer histologies, a renal cell cancer cell-line (Reno-1) was developed from a surgical sample of renal cancer and used in a xeno-transplantation experiment. […] The percentage of necrosis in each tissue section was evaluated in a blinded fashion.
# [5] = Oral 9.35 mg/kg/d, individual baboons, 9.35 mg/kg/day
# [6] = Oral 18.7 mg/kg/d, individual baboons
compound,measurement,setting,value
"CS(=O)(=O)O.Nc1ncn([C@H]2C[C@H](O)[C@@H](CO)O2)c(=O)n1 [Dac-m, decitabine-mesylate]",ANC nadir,"baboons; Oral 4.1 mg/kg/d, baboon 7001",1417
same,Post-HbF %,"baboons; Oral 4.1 mg/kg/d, baboon 7001",13.1%
same,ANC nadir,"baboons; Oral 6.7 mg/kg/d, baboon 7002",481
same,Post-HbF %,"baboons; Oral 6.7 mg/kg/d, baboon 7002",31.4%
same,ANC nadir,baboons; [5],463 and 2000
same,Post-HbF %,baboons; [5],62.3% and 40.5%
same,ANC nadir,baboons; [6],1659
same,Post-HbF %,baboons; [6],67.8%
"Nc1ccn([C@@H]2O[C@H](CO)[C@@H](O)[C@@H]2O)c(=O)n1 [Ara-C, cytosine arabinoside]","DNA damage (Fast Micro-method for DNA scission, γH2AX)",[1],cause significant DNA damage
same,cell counts,normal CD34+ cells,more devastating to normal cells
same,apoptosis (annexin V-FITC and 7AAD double staining),[2],cause significant apoptosis and cell-death
"O=C1NC(O)CCN1[C@@H]1O[C@H](CO)[C@@H](O)[C@H]1O (some centres unmarked) [THU, Tetrahydrouridine]","DAC concentrations, THU 400 mg/m^2 versus THU 40 mg/m^2","[3]; 60 minutes before DAC 100 mg/m^2, PA7470 and PA7484",produced higher DAC concentrations
same,"DAC concentrations, THU 60 minutes before versus simultaneously or 30 minutes before DAC",[3]; in vivo,produced higher DAC concentrations
avastin: standard agent used to treat renal cancer,sensitivity of the tumor to standard agents,[4],relatively resistant
